Data published in patent US20180008688A1, “METHOD AND COMPOSITIONS FOR ENHANCING IMMUNOTHERAPEUTIC TREATMENT OF A CANCER” (Augusta University Research Institute, Inc., priority 2016, published 2018).

Tested on: T cells
Assay: Purified T cells activated with anti-CD3/CD28 with nutlin, IL-12, MG-132
Assay type: cell-based, mouse
Text: Regulation of p53 is complex, and it can be targeted by multiple pathways besides MDM2 (Chao C. C. (2015) Clin. Chim. Acta 438: 139-147). If IL-12 is rescuing T cells from nutlin, one possibility is that IL-12 might activate an alternative pathway of p53 degradation, not dependent on MDM2. To test this, purified T cells were activated (without any antigen-presenting cells or other cells) using anti-CD3/CD28 antibodies. T cells were activated in the presence or absence of nutlin with or without addition of recombinant IL-12.
Finally, to test the hypothesis that IL-12 targeted p53 for proteolytic degradation via an alternated pathway, proteasomal function was inhibited using MG-132. T cells were activated using immobilized CD3/CD28 as above. […] CFSE proliferation tracked inversely with p53 levels. […] While MG-132 affects many intracellular pathways besides p53, these findings support the basic hypothesis that IL-12 bypasses nutlin by targeting p53 for degradation via an alternative route.

[1] = nutlin, anti-CD3/CD28 activation

`COc1ccc(C2=NC(c3ccc(Cl)cc3)C(c3ccc(Cl)cc3)N2C(=O)N2CCNC(=O)C2)c(OC(C)C)c1` (single isomer, unassigned; (-)) [nutlin-3a, (−)-4-(4,5-Bis(4-chlorophenyl)-2-(2-isopropoxy-4-methoxyphenyl)-4,5-dihydro-1H-imidazole-1-carbonyl)piperazin-2-one] was tested. Which T cell proliferation [1] did it give?
Its T cell proliferation is “suppressed proliferation of T cells”.

And the “p53 levels in activated T cells” value [1]?
Its value is “progressively restored, and then markedly elevated”.

And the “p53 levels in activated T cells” value (nutlin, anti-CD3/CD28 activation, listed as Nutlin)?
The value was “blocked the down-regulation of p53”.

And the “effect of nutlin on p53-deficient T cells” value (p53-deficient T cells)?
Its value is “no inhibitory effect”.
